The test system of experiment [1] is NCCIT (pSuicide) cells. Description: OCT4 immunofluorescence of RA-differentiated cells with ganciclovir. Format: cell-based, human. As for the experimental part:
(§1) One aliquot of cells was maintained in differentiation medium containing 2 μmol/L ganciclovir for 7 days (for in vitro immuno-analysis) or 14 days (for in vivo tumor formation). As a negative control, counterpart cells were grown in differentiation medium containing 0.1% DMSO in which ganciclovir is dissolved.
Briefly, differentiated NCCIT cells growing on chamber slides were fixed in 4% PFA for 15 min at room temperature and permeabilized in 0.2% Triton X-100/PBS for 10 min. After blocking with 10% horse serum, cells were incubated with 3%0/horse serum diluted (1:50) OCT4 antibody (Santa Cruz Biotechnology) for 1 h at room temperature, followed by three washes in PBS-T (0.1% Tween 20 in phosphate-buffered saline). […] Images were captured under a fluorescent microscope.

The test system of experiment [2] is NCCIT (pSuicide) cells. Description: Flow cytometry of OCT4-expressing cells after RA and ganciclovir. Format: cell-based, human. The protocol: as §1
(§2) Cells were trypsinized and about 5×10^5 cells were fixed in 2% paraformaldehyde for 10 min at room temperature. Cells were pelleted and permeabilized by resuspension with vigorous vortexing in 500 μl iced-cold methanol and incubated at 4° C. for at least 10 min. After 3 washes with staining buffer (PBS with 1% BSA), the cells were resuspended in 100 μl OCT4 antibody (Santa Cruz Biotechnology), diluted to 1:100 with staining buffer, and incubated for 30 min at 4° C. The cells were washed 3 times with staining buffer and incubated in 1:300 diluted Cy5-conjugated goat anti-mouse Fab for 30 min at 4° C. The cells were assessed for OCT4 expression using a BD FACSCalibur cytometer (BD Biosciences) with CellQuest software.
(In flow cytometry, cells or beads pass a laser one at a time.)

In experiment [3] the test system is NCCIT cells. The experiment is described as above. Type of experiment: cell-based, human. As for the experimental part:
as §1, §2

Experiment [4] relates to RA-differentiated NCCIT(pSuicide) cells. Description: Tumor development from RA-differentiated NCCIT(pSuicide) cells with or without in vitro ganciclovir selection. Format: in vivo, SCID mice. The protocol: as §1
Trypsinized cells washed in PBS were resuspended in ice-cold PBS containing 30% BD Matrigel (BD Biosciences), drawn into an ice-cold 1-mL syringe, and kept on ice for subcutaneous injection into 8-˜12-week-old female immunodeficient SCID mice (Charles River Laboratories, Wilmington, Mass.) as previously described (Prokhorova et al., 2009, Stem Cells Dev 2009; 18:47-54). For undifferentiated NCCIT and NCCIT (pSuicide) cells, 1.5×10^6 cells in 100 μl volume were injected for each mouse. For differentiated NCCIT (pSuicide) cells, 3×10^6 cells were injected.
(§3) When tumors reached about 8 mm in size, ganciclovir (50 mg/kg body weight) was delivered intraperitoneally daily for 2-3 weeks. Each tumor was regarded as a prolate spheroid and the greatest longitudinal diameter (L) and greatest transverse diameter (B) were monitored with a caliper every 2 days by the same person. The two dimensions were to lie perpendicular to each other in a plane tangential to the body wall. Tumor size was estimated from the formula V=½(L×B^2) as previously described (Euhus et al., 1986, J Surg Oncol 31:229-34). The size of tumors formed by NCCIT and NCCIT (pSuicide) cells was compared by analysis of variation (ANOVA), setting as 1 the volume on the day ganciclovir was first delivered.

Experiment [5] relates to NCCIT cells. Description: OCT4 immunofluorescence of RA-differentiated cells with ganciclovir.
Experiment [6] has as its system NCCIT (pSuicide) cells. As to the kind of experiment: Western blotting of OCT4A after RA-induced differentiation and ganciclovir. To be noted: RA-induced NCCIT (pSuicide) cells treated with ganciclovir. Type of experiment: cell-based, human. The protocol: as §1
(§4) Cells were lysed in RIPA buffer with protease inhibitors (0.5 mmol/L PMSF and 1×Complete Protease Inhibitor Cocktail from Roche) for SDS-PAGE and Western blotting analyses. Monoclonal anti-β-actin antibody was from Sigma and used at 1:5000 (St Louis, Mo.). Rabbit anti-HSV thymidine kinase antiserum was obtained from Dr. William Summers of Yale University (1:5000); anti-OCT4A antibody was from Santa Cruz Biotechnology (Santa Cruz, Calif.) and used at 1:1000. Horseradish peroxidase (HRP)-conjugated secondary antibodies (1:1000) were purchased from Pierce (Rockford, Ill.). Chemiluminescent reagents from Pierce were used to visualize the protein signals on an LAS-3000 imaging system (Fujifilm). The Integrated Density function (Image J software) was used to quantify the expression of individual proteins after normalized by β-actin.
Background: In western blotting, separated proteins are transferred to a membrane and probed.

Experiment [7] deals with NCCIT cells. The experiment is described as above. Type of experiment: cell-based, human. The following applies: ganciclovir added to RA-induced NCCIT cells. As for the experimental part:
as §1, §4

In experiment [8] the test system is NCCIT (pSuicide) cells. Description: Cell survival under ganciclovir treatment. Format: cell-based, human. The protocol: (§5) NCCIT and HeLa cells with and without pSuicide episomal DNA were treated with and without 2 μmol/L ganciclovir. Cell numbers and morphology were compared 7 days after treatment.
Experiment [9] relates to HeLa (pSuicide) cells. Description: Cell survival under ganciclovir treatment. Format: cell-based. As for the experimental part:
as §5

In experiment [10] the test system is tumors from NCCIT (pSuicide) cells. Description: In vivo ganciclovir treatment of tumors. The arrangement: species or system SCID mice. The protocol:
as §3, with “Trypsinized cells washed in PBS were resuspended in ice-cold PBS containing 30% BD Matrigel (BD Biosciences), drawn into an ice-cold 1-mL syringe, and kept on ice for subcutaneous injection into 8-˜12-week-old female immunodeficient SCID mice (Charles River Laboratories, Wilmington, Mass.) as previously described (Prokhorova et al., 2009, Stem Cells Dev 2009; 18:47-54). For undifferentiated NCCIT and NCCIT (pSuicide) cells, 1.5×10^6 cells in 100 μl volume were injected for each mouse. For differentiated NCCIT (pSuicide) cells, 3×10^6 cells were injected. When” for “When”

The subject of experiment [11] is tumors from NCCIT cells. Description: In vivo ganciclovir treatment of tumors. More on the design: species or system SCID mice. As for the experimental part: as §3, with “Trypsinized cells washed in PBS were resuspended in ice-cold PBS containing 30% BD Matrigel (BD Biosciences), drawn into an ice-cold 1-mL syringe, and kept on ice for subcutaneous injection into 8-˜12-week-old female immunodeficient SCID mice (Charles River Laboratories, Wilmington, Mass.) as previously described (Prokhorova et al., 2009, Stem Cells Dev 2009; 18:47-54). For undifferentiated NCCIT and NCCIT (pSuicide) cells, 1.5×10^6 cells in 100 μl volume were injected for each mouse. For differentiated NCCIT (pSuicide) cells, 3×10^6 cells were injected. When” for “When”

The mark [12] stands for this setting: 3 × 10^6 cells/mouse, SCID mice.
[13] abbreviates: 2 μmol/L ganciclovir for 7 days.

Each structure is given as a SMILES string. Where “and” joins values, the source holds several entries; their conditions need not be identical. Equal entries are not always repeated. Entries after “also recorded” stand apart in the source; their conditions may differ.

The values that follow come from patent US9879278B2, “Non-viral episomal suicide construct” (WAKE FOREST UNIVERSITY HEALTH SCIENCES, priority 2012, dated 2018).

Turning to `CC1=C(/C=C/C(C)=C/C=C/C(C)=C/C(=O)O)C(C)(C)CCC1` [RA, retinoic acid], the “cells induced to differentiate (OCT4A-negative)” value in [1] (20 μmol/L retinoic acid, NCCIT (pSuicide) cells) is recorded as “about 50%”; in [5] (20 μmol/L retinoic acid), “about 50%”. Further, the “percentage of OCT4A-positive cells” value in [2] (RA-treated NCCIT (pSuicide) cells before ganciclovir treatment) was 59.10%±0.5%. In addition, the OCT4A-positive cells in experiment [2] (after RA induction, NCCIT (pSuicide) cells) is listed as 40-60%; in [3] (after RA induction, NCCIT cells), 40-60%. Also, in experiment [4] (setting [12]), the “No. mice with tumor 0-3 Months postinjection” value stood at 6. Moreover, the “No. mice with tumor 3-5 Months postinjection” value in [4] (setting [12]) was determined as 1. Besides, in experiment [4] (setting [12]), the “No. mice with tumor Total” value was 7.

In the case of `Nc1nc(O)c2ncn(COC(CO)CO)c2n1` [ganciclovir], the “elimination of OCT4A-positive cells” value in [1] (2 μmol/L ganciclovir for 7 days after 10 days RA, NCCIT (pSuicide) cells) is given as “eliminated”; in experiment [5] (2 μmol/L ganciclovir for 7 days after 10 days RA), “did not eliminate”. Also, the “cells with nuclear staining of OCT4A antibody” value in experiment [1] (1670 immunostained ganciclovir-treated NCCIT (pSuicide) cells examined) was “none”. Besides, the OCT4A expression result in [6] is “undetectable”; in experiment [7], “did not reduce”. The “percentage of OCT4A-positive cells” value was 2.27%±0.12% in experiment [2] (RA-treated NCCIT (pSuicide) cells after ganciclovir treatment) and 30.18%±2.46% in [3] (RA-treated NCCIT cells after ganciclovir treatment). Moreover, the cell killing result was “killed” in experiment [8] (setting [13]) and “not” in [9] (setting [13]). Moreover, the proliferation entry in experiment [8] (ganciclovir treatment) was “affected”; in experiment [9] (ganciclovir treatment), “not affected and not”. The “mice that developed tumors of mice injected with ganciclovir-treated cells” value in experiment [4] (cells treated with ganciclovir for 14 days before injection, 3 months after injection) is 1 of 12 and 1/14. Besides, the “Tumors responded to ganciclovir” value is listed as 4/4 in experiment [10] (NCCIT(pSuicide)-derived tumors, ganciclovir 50 mg/kg intraperitoneally daily) and 0/7 in [11] (NCCIT-derived tumors, ganciclovir 50 mg/kg intraperitoneally daily). The tumor growth entry is “stopped growing; also recorded: inhibited growth” in [10] (tumors from NCCIT (pSuicide) cells, ganciclovir 50 mg/kg i.p. daily for two weeks); “inhibited” in [10] (two mice with tumors from differentiated NCCIT (pSuicide) cells treated with ganciclovir); “continued to grow and not” in experiment [11] (tumors from NCCIT cells, ganciclovir 50 mg/kg i.p. daily for two weeks).
